{
  "source": "patent US20170021023A1",
  "about": "(RESDEVCO RESEARCH AND DEVELOPMENT CO. LTD., priority 2005, published 2017)",
  "key": {"epithelial conical cells": {"test_system": "epithelial conical cells", "assay": "Rabbit eye drop treatment for 3 months, electron microscopy of epithelial cells", "assay_type": "in vivo, rabbits", "conditions": "preservatives such as benzalkonium chloride, cetrimonium bromide, sodium ethylene diamine tetraacetate", "procedure": "3 rabbits were treated for 3 months twice daily with eye drops, adjusted to pH 7.0. The average cross section of the epithelial conical cells and the percentage of damaged cells were evaluated by electron microscopy."}, "dry eye patients": {"test_system": "dry eye patients", "assay": "Fluorescein Break Up Time (BUT) study in dry eye patients", "assay_type": "in vivo, human", "conditions": "concentration of 0.002%", "source_text": "The advantages resulting from the addition of a surface active agent include a decrease in the surface tension of the aqueous solution, thereby increasing the spread. […] It is accepted that a BUT of 10 sec. or less indicates dry eye syndrome; see Example 11 below."}},
  "data": [
    {"compound": "OCC(O)CO", "note": "[glycerol]", "values": [
      {"measurement": "Effect on conical cell damage caused by preservatives", "setting": "epithelial conical cells", "result": "counteracts conical cell damage"}
    ]},
    {"compound": "polysorbate 80", "values": [
      {"measurement": "Effect on diminished Break Up Time (BUT)", "setting": "dry eye patients", "result": "increases the diminished Break Up Time (BUT)"}
    ]}
  ]
}
